Data reported in PMC2763579 (Journal of medicinal chemistry, 2009).
Entries after “also recorded” stand apart in the source; their conditions may differ.

Tested on: heat induced HSP70 expression in Jurkat cells
Assay: Inhibition of heat-induced HSP70 expression, Western blot
Type: cell-based, human
Settings: pre-heat treatment 50 μg/ml

| SMILES | Inhibition of HSP70 induction (in words) |
| --- | --- |
| O=C(O)COc1cc(O)c2c(=O)c(O)c(-c3ccc(O)c(O)c3)oc2c1 [Compound D9] | does not inhibit HSP70; also recorded: showed no ability to inhibit HSP70 induction |

Tested on: HSP27 phosphorylation at Ser78 in HeLa cells
Assay: Drug-induced HSP27 Ser78 phosphorylation, Western blot
Type: cell-based, human
Settings: absence of heat shock, 50 μg/ml 1 h

| SMILES | Enhancement of HSP27 phosphorylation (in words) |
| --- | --- |
| COC(=O)COc1cc(-c2oc3cc(O)cc(O)c3c(=O)c2O)ccc1O [Compound D1] | did not activate HSP27 phosphorylation |
| COc1cc(-c2oc3cc(O)cc(O)c3c(=O)c2O)ccc1O [Compound D2] | did not activate HSP27 phosphorylation |
| COc1cc(O)c2c(=O)c(O)c(-c3ccc(O)c(O)c3)oc2c1 [Compound D7] | showed enhancement of HSP27 phosphorylation |
| COC(=O)COc1cc(O)c2c(=O)c(O)c(-c3ccc(O)c(O)c3)oc2c1 [Compound D10] | showed enhancement of HSP27 phosphorylation |
| O=c1c(O)c(-c2ccc(O)c(O)c2)oc2cc(O)cc(O)c12 [Quercetin, reference compound] | enhances HSP27 phosphorylation at Ser78 |
